This note sets out measurements from patent publication US20030133874A1, “Analytical method to evaluate animal models of neurofibrillary degeneration” (priority 2002, published 2003).

For series [1], the system named is tau. The series is described as follows: Tau phosphorylation in rat brain after prolonged pentobarbital anesthesia, immunoblot of heat-stable extracts. To be noted: rats, five hours after 65 mg/kg. (A western blot detects proteins with antibodies after separation by electrophoresis.)
Text: The animals at 5 hrs after the first anesthesia had to be anethesized a second time, as they had regained full consciousness. […] Recovered brains were homogenized and supernatants processed for immunoblotting with AT8 and Tau-1 as before. To normalize signal intensity with phosphorylation-dependent mAbs to total amount of tau protein present in each extract (specific labelling) sister blots with a five-fold reduced load of extract protein were subjected to exhaustive dephosphorylation with calf intestinal alkaline phosphatase prior to staining with Tau-1. Blots were developed by ECL and relevant areas of the blots were scanned densitometrically. […]
A second dose of anesthetic was administered immediately prior to brain removal when excision occurred two hours or more after the first anesthesia. Cortices were processed and tau proteins analyzed by Western-blotting as in Example 2, using mAbs Tau-1 and AT8. To allow quantitative immunochemical evaluation of tau phosphorylation sister blots of all samples with a five-fold lower protein load were subjected to exhaustive dephosphorylation to provide a relative measure for total load of tau protein using Tau-1 staining. […] Signals were captured on KODAK X-OMAT scientific imaging film and quantitated by densitometric scanning and image analysis with NIH image 1.44. […]
For series [2], the system named is tau. The series is described as follows: Induction of tau hyperphosphorylation in rat hippocampal brain slices, immunoblot. Format: cell-based. Here is the method: Freshly prepared hippocampal brain slices from adult Long-Evans rats were incubated under oxygenation in a physiological buffer for 1 hr with increasing concentrations of okadaic acid. Slices were homogenized in an ice-cold stop buffer by brief ultrasonication, and supernatants were boiled and analyzed for heatstable tau proteins by immunoblotting with reference mAbs Tau-1, AT8, and PHF-1 (FIG. 4a), and AP422 (FIG. 4b).
Adult male Long-Evans rats were anesthesized with CO2 and decapitated. Brains were removed within 2 min and the hippocampus was dissected using a blunt spatula. Hippocampi were cut into […] slices using a Mcllwain tissue chopper and placed into ice-cold low Ca^2+ Krebs-Bicarbonate buffer (pH 7.0): 124 mM NaCl, 3.33 mM KCl, 0.01 mM Ca^2+, 1.25 mM KH2P04, 1.33 mM MgS04, 25.7 mM NaHCO3, 10 mM D-Glucose, 20 mM HEPES. 5-8 slices were placed into a tube with 5 ml of low Ca^2+ buffer and incubated for at least 30 min at 33-34° C. with water saturated oxygenation (95% O2, 5% CO2.). After 30 min the solution was replaced with a buffer containing a physiological level of Ca^2+ (1.3 mM) and incubated for an additional 30 min. […] Aliquots of heat-stable supernatants, normalized for protein content, were analyzed on 10% SDS-PAGE, followed by immunoblotting with mAbs AT8 (1:200) and AP422 (1:5,000). […]

In series [3] the test system is tau. The experiment in a line: Tau hyperphosphorylation in vivo after intracerebral injection into nucleus basalis, immunoblot. To be noted: rat nucleus basalis. As for the experimental part: a) Analysis with mAbs Tau-1 and AT8. […] Brains were surgically removed, the nucleus basalis dissected and homogenized in ice-cold stop buffer after 30 to 360 min. Heatstable supernatants were immunoblotted with Tau-1, AT8, and Tau-1 after dephosphorylation on the blot for normalization purposes.
b) Relevant areas of immunoblots developed with ECL were scanned densitometrically and AT8 signals normalized to Tau-1 signals of phosphatase-treated blots. Results represent triplicate experiments, P values were determined by ANOVA.
c) Aliquots of extracts of vehicle and okadaic acid injected nuclei basali were immunoblotted with mAb AP422.
Male or female Long-Evans rats at approximately 3 to 4 months of age were housed in pairs with food and water available ad libidum. […] The tissue was held out of the operating field with forceps and the areas of injection were marked. Openings were made through the skull using a dentists drill and a number 5 carbide bur. […]
Heat-stable supernatants of triplicate experiments were analyzed by immunoblotting with AT8 (FIG. 5a) and AP422 (FIG. 5c). AT8 signals were quantitated after normalization to Tau-1 immunoreactivity on phosphatase-treated blots as described in example 3. […]

The structures appear in SMILES notation.

As for `CCCC(C)C1(CC)C(=O)NC(=O)NC1=O` (centres unmarked) [pentobarbital], in series [1], the “autonomous signs after regaining consciousness” value is recorded as “no abnormal autonomous signs”.
For `C=C1[C@@H](O)[C@@H]2O[C@]3(CC[C@H](/C=C/[C@@H](C)[C@@H]4CC(C)=C[C@@]5(O[C@H](C[C@@](C)(O)C(=O)O)CC[C@H]5O)O4)O3)CC[C@H]2O[C@@H]1[C@@H](O)C[C@H](C)[C@H]1O[C@@]2(CCCCO2)CC[C@H]1C` [okadaic acid], the “tau hyperphosphorylation detected with AT8” value in series [2] (freshly prepared rat brain slices) is “tau hyperphosphorylation induced”. In addition, in series [2] (rat hippocampal brain slices, increasing concentrations), the “AP422 reactivity of tau” value is given as “induced”. For the same compound, the “specific effect on normalized AT8 signal” value in series [3] (30 to 360 min after injection) is “impossible to discern”. The “in vivo tau hyperphosphorylation detected with AP422” value in series [3] (individual animals) is “does not always occur”.
